Results taken from patent US12428416B2 (California Institute of Technology, priority 2018, dated 2025).

Experiments:
[1] = tested on: drug-sensitive cell lines of Table 4; assay: Cell line growth retardation assay, average over sensitive cohort; type: cell-based, Human; conditions: Homo sapiens, 144 h; geometric mean of IC50s over sensitive cohort (Table 4); 6 days growth; read-out: AvgSens IC50
Method: (§1) Cell Line Growth Retardation Assay
(§2) Cells were seeded at densities of 1,000-5,000 cells per well in 48-well tissue culture plates. After a 24 h rest period, cells were treated with compound at 10 μM, 2 μM, 0.4 μM, 0.08 μM, 0.016 μM, and 0.0032 μM. A group of cells were treated with the vehicle in which the compound was prepared and served as a control. The cells were grown in the presence of compounds for 6 days and were counted on day 0 and day 6. All cell counting was performed using a Synentec Cellavista plate imager. […] Growth inhibition was calculated as a ratio of cell population doublings in the presence of compound versus the absence of compound. […] IC50 values for each compound were calculated by fitting curves to data points from each dose-response assay using the Proc NLIN function in SAS for Windows version 9.2 (SAS Institute, Inc.).
(§3) Designation of Sensitivity and Resistant Cohorts and Calculation of Average IC50 Values
(§4) Human cancer cell lines were grouped as “sensitive” or “resistant” to ERK1 inhibition based on whether their growth was retarded by KO-947 (i.e., 1,5,6,8-tetrahydro-6-(phenylmethyl)-3-(4-pyridinyl)-7H-pyrazolo[4,3-g]quinazolin-7-one) and SCH772984 (i.e., (3R)-1-[2-oxo-2-[4-[4-(2-pyrimidinyl)phenyl]-1-piperazinyl]ethyl]-N-[3-(4-pyridinyl)-1H-indazol-5-yl]-3-pyrrolidinecarboxamide) (data not shown; see Table 4). These sensitive and resistant cohorts were interrogated for response to each compound, and IC50s were calculated for each cell line using the same technique described above. Average IC50s for the sensitive and resistant cohorts were calculated as geometric means of the group.

[2] = biological target: ERK1 (Homo sapiens, UniProt P27361); assay: ERK1 and 2 Enzymatic Inhibition Assay (ERK1); type: biochemical; conditions: 10 assay concentrations 2×10^−6 M to 6×10^−11 M, 1% DMSO
Method: (§5) ERK1 and 2 Enzymatic Inhibition Assay
(§6) For the Ki determination assay, 200 μM stock solutions of compounds were subjected to a serial, semi-logarithmic dilution using 100% DMSO as a solvent. 10 distinct concentrations were prepared, with a dilution endpoint of 6×10^−9 M in 100% DMSO. 100% DMSO was used as a control. 10 μL from each of the serial dilutions were aliquoted into separate wells of a 96-well plate and 90 μL of water were added to each of those wells. The plate was shaken thoroughly, and 5 μL from each of the plate's wells were transferred into wells of the assay plate. The final volume of wells in the assay plate was 50 μL. All compounds were tested at 10 assay concentrations in the range from 2×10^−6 M to 6×10^−11 M. The final DMSO concentration in the wells of the assay plate was 1% in all cases.

[3] = biological target: ERK2 (Homo sapiens, UniProt P28482); assay: ERK1 and 2 Enzymatic Inhibition Assay (ERK2); type: biochemical; conditions: 10 assay concentrations 2×10^−6 M to 6×10^−11 M, 1% DMSO
Method: as §5, §6

[4] = tested on: drug-resistant cell lines of Table 4; assay: Cell line growth retardation assay, average over resistant cohort; type: cell-based, Human; conditions: Homo sapiens, 144 h; geometric mean of IC50s over resistant cohort (Table 4); 6 days growth; read-out: AvgRes IC50
Method: as §1, §2, §3, §4

ERK2, sequence (P28482 whole entry): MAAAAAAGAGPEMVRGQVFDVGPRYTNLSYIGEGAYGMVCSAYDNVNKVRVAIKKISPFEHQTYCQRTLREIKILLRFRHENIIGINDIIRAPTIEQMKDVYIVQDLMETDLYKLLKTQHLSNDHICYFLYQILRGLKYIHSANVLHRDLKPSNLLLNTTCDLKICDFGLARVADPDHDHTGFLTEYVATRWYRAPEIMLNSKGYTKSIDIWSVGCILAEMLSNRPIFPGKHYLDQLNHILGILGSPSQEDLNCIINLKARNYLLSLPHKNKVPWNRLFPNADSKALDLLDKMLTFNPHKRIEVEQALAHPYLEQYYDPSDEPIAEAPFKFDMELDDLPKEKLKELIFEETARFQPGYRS
ERK1, sequence (P27361 whole entry): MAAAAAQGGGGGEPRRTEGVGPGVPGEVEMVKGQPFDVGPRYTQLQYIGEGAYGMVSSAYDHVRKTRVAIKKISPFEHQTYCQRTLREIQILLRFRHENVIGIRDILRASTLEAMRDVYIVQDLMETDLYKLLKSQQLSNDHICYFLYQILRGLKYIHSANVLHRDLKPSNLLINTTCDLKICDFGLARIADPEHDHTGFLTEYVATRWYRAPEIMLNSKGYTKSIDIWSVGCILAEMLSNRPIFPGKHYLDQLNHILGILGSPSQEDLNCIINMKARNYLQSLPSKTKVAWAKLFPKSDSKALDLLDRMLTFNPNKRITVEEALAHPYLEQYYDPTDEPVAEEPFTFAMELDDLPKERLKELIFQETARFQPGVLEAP

Kd [2]	Kd [3]	SMILES	IC50 [1]	IC50 [4]
11 to 100 nM	11 to 100 nM	C[C@H]1N=C(c2ncc(-c3c[nH]c4ncc(N5CCOCC5)cc34)cn2)O[C@H]1c1ccccc1 [Compound 56, 4-(3-(2-((4R,5S)-4-methyl-5-phenyl-4,5-dihydrooxazol-2-yl)pyrimidin-5-yl)-1H-pyrrolo[2,3-b]pyridin-5-yl)morpholine]	> 500 nM	> 500 nM
≤ 10 nM	≤ 10 nM	C[C@H](NC(=O)c1ncc(-c2c[nH]c3ncc(N4CCOCC4)cc23)cn1)c1ccccc1F [Compound 44, (S)—N-(1-(2-fluorophenyl)ethyl)-5-(5-morpholino-1H-pyrrolo[2,3-b]pyridin-3-yl)pyrimidine-2-carboxamide]	≤ 250 nM	> 500 nM
≤ 10 nM	11 to 100 nM	CC(NC(=O)c1ncc(-c2c[nH]c3ncc(N4CCO[C@@H](C)C4)cc23)cn1)c1ccccc1 (stereo in doubt) [Compound 37, 5-(5-((S)-2-methylmorpholino)-1H-pyrrolo[2,3-b]pyridin-3-yl)-N—((R)-1-phenylethyl)pyrimidine-2-carboxamide]	> 500 nM	> 500 nM
11 to 100 nM	> 100 nM	O=C(NCCc1ccccc1)c1ccc(-c2c[nH]c3ncc(N4CCOCC4)cc23)nn1 [Compound 13, 6-(5-morpholino-1H-pyrrolo[2,3-b]pyridin-3-yl)-N-phenethylpyridazine-3-carboxamide]	> 500 nM	> 500 nM
≤ 10 nM	≤ 10 nM	COc1cc(-c2cnc3[nH]cc(-c4cnc(C(=O)NC(C)c5ccccc5)nc4)c3c2)ccn1 (stereo in doubt) [Compound 41, (R)-5-(5-(2-methoxypyridin-4-yl)-1H-pyrrolo[2,3-b]pyridin-3-yl)-N-(1-phenylethyl)pyrimidine-2-carboxamide]	≤ 250 nM	> 500 nM
11 to 100 nM	11 to 100 nM	O=C(c1ncc(-c2c[nH]c3ncc(N4CCOCC4)cc23)cn1)N1CCC[C@@H]1c1ccccc1 [Compound 18, (R)-(5-(5-morpholino-1H-pyrrolo[2,3-b]pyridin-3-yl)pyrimidin-2-yl)(2-phenylpyrrolidin-1-yl)methanone]	> 500 nM	> 500 nM
> 100 nM	> 100 nM	CN(C)CC(NC(=O)c1ncc(-c2c[nH]c3ncc(N4CCOCC4)cc23)cn1)c1ccccc1 (stereo in doubt) [Compound 57, (S)—N-(2-(dimethylamino)-1-phenylethyl)-5-(5-morpholino-1H-pyrrolo[2,3-b]pyridin-3-yl)pyrimidine-2-carboxamide]	> 500 nM	> 500 nM
> 100 nM	> 100 nM	O=C(NCc1ccc(C(F)(F)F)cc1)c1ncc(-c2c[nH]c3ncc(N4CCOCC4)cc23)cn1 [Compound 10, 5-(5-morpholino-1H-pyrrolo[2,3-b]pyridin-3-yl)-N-(4-(trifluoromethyl)benzyl)pyrimidine-2-carboxamide]	> 500 nM	> 500 nM
> 100 nM	> 100 nM	O=C(c1ncc(-c2c[nH]c3ncc(N4CCOCC4)cc23)cn1)N1CCC[C@H]1c1ccccc1 [Compound 19, (S)-(5-(5-morpholino-1H-pyrrolo[2,3-b]pyridin-3-yl)pyrimidin-2-yl)(2-phenylpyrrolidin-1-yl)methanone]	> 500 nM	> 500 nM
11 to 100 nM	11 to 100 nM	O=C(NCCc1ccccn1)c1ncc(-c2c[nH]c3ncc(N4CCOCC4)cc23)cn1 [Compound 60, 5-(5-morpholino-1H-pyrrolo[2,3-b]pyridin-3-yl)-N-(2-(pyridin-2-yl)ethyl)pyrimidine-2-carboxamide]	> 500 nM	> 500 nM
11 to 100 nM	11 to 100 nM	CCN1C[C@H](c2ccccc2)N=C1c1ncc(-c2c[nH]c3ncc(N4CCOCC4)cc23)cn1 [Compound 51, (S)-4-(3-(2-(1-ethyl-4-phenyl-4,5-dihydro-1H-imidazol-2-yl)pyrimidin-5-yl)-1H-pyrrolo[2,3-b]pyridin-5-yl)morpholine]	251 to 500 nM	> 500 nM
≤ 10 nM	11 to 100 nM	O=C(NCCc1ccc(F)cc1)c1ncc(-c2c[nH]c3ncc(N4CCOCC4)cc23)cn1 [Compound 62, N-(4-fluorophenethyl)-5-(5-morpholino-1H-pyrrolo[2,3-b]pyridin-3-yl)pyrimidine-2-carboxamide]	> 500 nM	> 500 nM
≤ 10 nM	≤ 10 nM	COc1ccccc1[C@H](C)NC(=O)c1ncc(-c2c[nH]c3ncc(N4CCOCC4)cc23)cn1 [Compound 46, (S)—N-(1-(2-methoxyphenyl)ethyl)-5-(5-morpholino-1H-pyrrolo[2,3-b]pyridin-3-yl)pyrimidine-2-carboxamide]	251 to 500 nM	> 500 nM
≤ 10 nM	≤ 10 nM	O=C(NC(CO)c1ccccc1)c1ncc(-c2c[nH]c3ncc(N4CCOCC4)cc23)cn1 (stereo in doubt) [Compound 53, (S)—N-(2-hydroxy-1-phenylethyl)-5-(5-morpholino-1H-pyrrolo[2,3-b]pyridin-3-yl)pyrimidine-2-carboxamide]	> 500 nM	> 500 nM
≤ 10 nM	≤ 10 nM	C[C@H](CNC(=O)c1ncc(-c2c[nH]c3ncc(N4CCOCC4)cc23)cn1)c1ccccc1 [Compound 32]	251 to 500 nM	> 500 nM
≤ 10 nM	≤ 10 nM	N#Cc1ccccc1CCNC(=O)c1ncc(-c2c[nH]c3ncc(N4CCOCC4)cc23)cn1 [Compound 66, N-(2-cyanophenethyl)-5-(5-morpholino-1H-pyrrolo[2,3-b]pyridin-3-yl)pyrimidine-2-carboxamide]	> 500 nM	> 500 nM
11 to 100 nM	11 to 100 nM	c1ccc([C@H]2CN=C(c3ncc(-c4c[nH]c5ncc(N6CCOCC6)cc45)cn3)O2)cc1 [Compound 55, (S)-4-(3-(2-(5-phenyl-4,5-dihydrooxazol-2-yl)pyrimidin-5-yl)-1H-pyrrolo[2,3-b]pyridin-5-yl)morpholine]	> 500 nM	> 500 nM
≤ 10 nM	≤ 10 nM	CC(NC(=O)c1ncc(-c2c[nH]c3ncc(N4CC5(COC5)C4)cc23)cn1)c1ccccc1 (stereo in doubt) [Compound 42, (R)-5-(5-(2-oxa-6-azaspiro[3.3]heptan-6-yl)-1H-pyrrolo[2,3-b]pyridin-3-yl)-N-(1-phenylethyl)pyrimidine-2-carboxamide]	> 500 nM	> 500 nM
11 to 100 nM	11 to 100 nM	CC(NC(=O)c1ncc(-c2c[nH]c3ncc(N4CCOCC4)cc23)cn1)c1ccn(C)c1 (centres unmarked) [Compound 24, N-(1-(1-methyl-1H-pyrrol-3-yl)ethyl)-5-(5-morpholino-1H-pyrrolo[2,3-b]pyridin-3-yl)pyrimidine-2-carboxamide]	> 500 nM	> 500 nM
11 to 100 nM	11 to 100 nM	C[C@H](c1ccccc1)N(C)C(=O)c1ncc(-c2c[nH]c3ncc(N4CCOCC4)cc23)cn1 [Compound 17]	> 500 nM	> 500 nM
≤ 10 nM	11 to 100 nM	C[C@@H](NC(=O)c1ncc(-c2c[nH]c3ncc(N4CCOCC4)cc23)cn1)c1cccc(C(F)(F)F)c1 [Compound 21, (R)-5-(5-morpholino-1H-pyrrolo[2,3-b]pyridin-3-yl)-N-(1-(3-(trifluoromethyl)phenyl)ethyl)pyrimidine-2-carboxamide]	251 to 500 nM	> 500 nM
11 to 100 nM	11 to 100 nM	CC(NC(=O)c1ncc(-c2c[nH]c3ncc(Br)cc23)cn1)c1ccccc1 (stereo in doubt) [Compound 67, (R)-5-(5-bromo-1H-pyrrolo[2,3-b]pyridin-3-yl)-N-(1-phenylethyl)pyrimidine-2-carboxamide]	> 500 nM	> 500 nM
≤ 10 nM	≤ 10 nM	Cc1ccccc1CCNC(=O)c1ncc(-c2c[nH]c3ncc(N4CCOCC4)cc23)cn1 [Compound 65, N-(2-methylphenethyl)-5-(5-morpholino-1H-pyrrolo[2,3-b]pyridin-3-yl)pyrimidine-2-carboxamide]	≤ 250 nM	> 500 nM
